Measurements reported in patent US20240279202A1 (NURIX THERAPEUTICS, INC., priority 2021, published 2024).

Assays:
ITK = target: T1, ITK (Homo sapiens, UniProt Q08881); test: ITK degradation HiBiT assay; assay type: cell-based; parameters: expressed in transfected cells; host or cells: Molt4 (ATCC CRL-1552), monoclonal clone 1C10, engineered to carry the HiBiT tag; conditions: 4 hrs; for Dmax: MOLT-4, C-terminal HiBiT-tagged Molt4 cells
T1 sequence (Q08881 1-620): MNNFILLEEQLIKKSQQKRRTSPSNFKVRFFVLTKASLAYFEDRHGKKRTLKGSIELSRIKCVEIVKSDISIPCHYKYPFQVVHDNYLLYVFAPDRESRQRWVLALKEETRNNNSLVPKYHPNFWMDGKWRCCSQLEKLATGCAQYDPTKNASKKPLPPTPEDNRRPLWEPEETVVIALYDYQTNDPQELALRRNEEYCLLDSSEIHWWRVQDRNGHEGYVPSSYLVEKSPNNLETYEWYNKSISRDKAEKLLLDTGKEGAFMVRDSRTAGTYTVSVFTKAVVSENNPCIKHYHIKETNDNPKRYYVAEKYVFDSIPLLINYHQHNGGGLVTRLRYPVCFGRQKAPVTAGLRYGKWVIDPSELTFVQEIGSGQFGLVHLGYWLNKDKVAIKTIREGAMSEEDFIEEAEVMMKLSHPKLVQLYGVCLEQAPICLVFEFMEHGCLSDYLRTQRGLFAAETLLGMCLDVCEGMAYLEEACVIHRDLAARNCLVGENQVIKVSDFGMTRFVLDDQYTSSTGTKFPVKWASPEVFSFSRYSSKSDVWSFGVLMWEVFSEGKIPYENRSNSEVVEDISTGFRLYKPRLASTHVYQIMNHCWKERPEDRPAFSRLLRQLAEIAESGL
How it was run: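 C-terminal HiBiT-tagged Molt4 cells (clone 1C10) treated 4 h at 32° C with an 11-point, 5-fold compound dilution series (0.5% DMSO). HiBiT lytic detection with LgBiT then luminescence read; % ITK remaining versus concentration fit by four-parameter variable-slope model to give DC50 and Dmax.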

[1] = Mouse PK analysis (blood/plasma concentration after oral administration); assay type: in vivo; conditions: mouse, plasma, oral, 90 mg/kg, mice
How it was run: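 Mice were dosed by oral gavage at 90 mg/kg with blood sampled at 1, 2 and 6 h; a second study used oral dosing with plasma taken at 6 or 24 h. Plasma levels were measured by LC/MS/MS (acetonitrile precipitation, internal-standard curve, positive ESI MRM), and Cmax, Tmax and AUClast were derived by noncompartmental analysis.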

[2] = C-terminal HiBiT-tagged Molt4 cells

Compound | DC50 (ITK; [2]) [nM] | Dmax (ITK) [%] | other results
CN(C(=O)CC[C@H]1CCN(c2ccc3c(c2)C(=O)N(C2CCC(=O)NC2=O)C3=O)C1)c1ccc2cc(-c3n[nH]c4c3C[C@@H]3C(F)(F)[C@]3(C)C4)[nH]c2c1 (stereo in doubt) [Compound 67, N-(2-((4aS,5aR)-5,5-difluoro-5a-methyl-1,4,4a,5,5a,6-hexahydrocyclopropafindazol-3-yl)-1H-indol-6-yl)-3-((3R)-1-(2-(2,6-dioxopiperidin-3-yl)-1,3-dioxoisoindolin-5-yl)pyrrolidin-3-yl)-N-methylpropanamide] | 2.3 | 75 | 
C[C@@H](C(=O)N(C)c1ccc2cc(-c3n[nH]c4c3CCC(C)(C)C4)[nH]c2c1)N1CCN(CC2CCN(c3ccc(C(=O)NC4CCC(=O)NC4=O)nc3)CC2)CC1 (stereo partly drawn) [Compound 7, 5-(4-((4-((S)-1-((2-(6,6-dimethyl-4,5,6,7-tetrahydro-1H-indazol-3-yl)-1H-indol-6-yl)(methyl)amino)-1-oxopropan-2-yl)piperazin-1-yl)methyl)piperidin-1-yl)-N-(2,6-dioxopiperidin-3-yl)picolinamide] |  |  | concentration at 1 h ([1]; 1 h, read-out: Cal. Conc. Total (μM) 1 h): 0.2 µM; concentration at 2 h ([1]; 2 h, read-out: Cal. Conc. Total (μM) 2 h): 0.29 µM; concentration at 6 h ([1]; 6 h, read-out: Cal. Conc. Total (μM) 6 h): 0.45 µM
C[C@@H](C(=O)N(C)c1ccc2cc(-c3n[nH]c4c3CCC(C)(C)C4)[nH]c2c1)N1CCN(CC2CCN(c3ccc(C4CCC(=O)NC4=O)cn3)CC2)CC1 (stereo partly drawn) [Compound 10, (2S)—N-(2-(6,6-dimethyl-4,5,6,7-tetrahydro-1H-indazol-3-yl)-1H-indol-6-yl)-2(4-((1-(5-(2,6-dioxopiperidin-3-yl)pyridin-2-yl)piperidin-4-yl)methyl)piperazin-1-yl)-N-methylpropanamide] | 0.48 |  | 
C[C@@H](C(=O)N(C)c1ccc2cc(-c3n[nH]c4c3CCC(C)(C)C4)[nH]c2c1)N1CCN(CC2CCN(c3ccc(N4CCC(=O)NC4=O)cn3)CC2)CC1 [Compound 11, (S)—N-(2-(6,6-dimethyl-4,5,6,7-tetrahydro-1H-indazol-3-yl)-1H-indol-6-yl)-2-(4-((1-(5-(2,4-dioxotetrahydropyrimidin-1(2H)-yl)pyridin-2-yl)piperidin-4-yl)methyl)piperazin-1-yl)-N-methylpropanamide] | 2 |  | 
C[C@@]12Cc3[nH]nc(-c4cc5ccc(N6CCC7(CCN(CC8CCN(c9ccc(C%10CCC(=O)NC%10=O)cn9)CC8)CC7)C6=O)cc5[nH]4)c3C[C@@H]1C2(F)F (stereo partly drawn) [Compound 19, 3-(6-(4-((2-(2-((4aS,5aR)-5,5-difluoro-5a-methyl-1,4,4a,5,5a,6-hexahydrocyclopropa[f]indazol-3-yl)-1H-indol-6-yl)-1-oxo-2,8-diazaspiro[4.5]decan-8-yl)methyl)piperidin-1-yl)pyridin-3-yl)piperidine-2,6-dione] | 0.27 |  | 
CN(C(=O)CCC1CCN(c2ccc(C3CCC(=O)NC3=O)cn2)CC1)c1ccc2cc(-c3n[nH]c4c3C[C@@H]3C(F)(F)[C@]3(C)C4)[nH]c2c1 (stereo partly drawn) [Compound 21, N-(2-((4aS,5aR)-5,5-difluoro-5a-methyl-1,4,4a,5,5a,6-hexahydrocyclopropa[f]indazol-3-yl)-1H-indol-6-yl)-3-(1-(5-(2,6-dioxopiperidin-3-yl)pyridin-2-yl)piperidin-4-yl)-N-methylpropanamide] | 0.01 |  | 
C[C@@]12Cc3[nH]nc(C(=O)Nc4cnn(CC5CN(C(=O)C6CCN(c7ccc(C8CCC(=O)NC8=O)cn7)CC6)C5)c4)c3C[C@@H]1C2(F)F (stereo partly drawn) [Compound 50, (4aS,5aR)-N-(1-((1-(1-(5-(2,6-dioxopiperidin-3-yl)pyridin-2-yl)piperidine-4-carbonyl)azetidin-3-yl)methyl)-1H-pyrazol-4-yl)-5,5-difluoro-5a-methyl-1,4,4a,5,5a,6-hexahydrocyclopropa[f]indazole-3-carboxamide] | 0.21 |  | 
CN(C(=O)CC1CCN(CC2CCN(c3ccc(C(=O)NC4CCC(=O)NC4=O)nc3)CC2)CC1)c1ccc2cc(-c3n[nH]c4c3C[C@@H]3C(F)(F)[C@]3(C)C4)[nH]c2c1 (stereo partly drawn) [Compound 75, 5-(4-((4-(2-((2-((4aS,5aR)-5,5-difluoro-5a-methyl-1,4,4a,5,5a,6-hexahydrocyclopropa[f]indazol-3-yl)-1H-indol-6-yl)(methyl)amino)-2-oxoethyl)piperidin-1-yl)methyl)piperidin-1-yl)-N-(2,6-dioxopiperidin-3-yl)picolinamide] | 0.5 | 83 | 

The next lines start with results.

DC50 (ITK; [2]) [nM] | Dmax (ITK) [%] | Compound | other results
0.5 |  | CN(C(=O)CC[C@H]1CCN(c2ccc3c(c2)C(=O)N(C2CCC(=O)NC2=O)C3=O)C1)c1ccc2cc(-c3n[nH]c4c3C[C@@H]3C(F)(F)[C@]3(C)C4)[nH]c2c1 (stereo in doubt) [Compound 68] | HiBiT DMax (%) (ITK; [2]): 78%
0.16 | 89 | Cn1c(=O)n(C2CCC(=O)NC2=O)c2ccc(N3CCC(CN4CCC5(CC4)CCN(c4ccc6cc(-c7n[nH]c8c7CCC(C)(C)C8)[nH]c6c4)C5=O)CC3)cc21 (stereo not drawn) [Compound 14, 3-(5-(4-((2-(2-(6,6-dimethyl-4,5,6,7-tetrahydro-1H-indazol-3-yl)-1H-indol-6-yl)-1-oxo-2,8-diazaspiro[4.5]decan-8-yl)methyl)piperidin-1-yl)-3-methyl-2-oxo-2,3-dihydro-1H-benzo[d]imidazol-1-yl)piperidine-2,6-dione] | 
0.004 |  | C[C@@H](C(=O)N(C)c1ccc2cc(-c3n[nH]c4c3C[C@@H]3C(F)(F)[C@]3(C)C4)[nH]c2c1)N1CCN(CC2CCN(c3ccc(N4CCC(=O)NC4=O)cn3)CC2)CC1 [Compound 18, (S)—N-(2-((4aS,5aR)-5,5-difluoro-5a-methyl-1,4,4a,5,5a,6-hexahydrocyclopropa[f]indazol-3-yl)-1H-indol-6-yl)-2-(4-((1-(5-(2,4-dioxotetrahydropyrimidin-1(2H)-yl)pyridin-2-yl)piperidin-4-yl)methyl)piperazin-1-yl)-N-methylpropanamide] | 
3.4 | 85 | C[C@@H](C(=O)N(C)c1ccc2cc(-c3n[nH]c4c3CCC(C)(C)C4)[nH]c2c1)N1CCN(C[C@H]2CCN(c3ccc4c(c3)C(=O)N(C3CCC(=O)NC3=O)C4=O)C2)CC1 (stereo partly drawn) [Compound 33, (2S)—N-(2-(6,6-dimethyl-4,5,6,7-tetrahydro-1H-indazol-3-yl)-1H-indol-6-yl)-2-(4-(((3R)-1-(2-(2,6-dioxopiperidin-3-yl)-1,3-dioxoisoindolin-5-yl)pyrrolidin-3-yl)methyl)piperazin-1-yl)-N-methylpropanamide] | 
2.9 | 93 | C[C@@]12Cc3[nH]nc(C(=O)Nc4cnn(CC5CN(C(=O)C6CN(C7CCN(c8ccc9c(c8)C(=O)N(C8CCC(=O)NC8=O)C9=O)CC7)C6)C5)c4)c3C[C@@H]1C2(F)F (stereo partly drawn) [Compound 42, (4aS,5aR)-N-(1-((1-(1-(1-(2-(2,6-dioxopiperidin-3-yl)-1,3-dioxoisoindolin-5-yl)piperidin-4-yl)azetidine-3-carbonyl)azetidin-3-yl)methyl)-1H-pyrazol-4-yl)-5,5-difluoro-5a-methyl-1,4,4a,5,5a,6-hexahydrocyclopropa[f]indazole-3-carboxamide] | 
4.6 |  | CC1(C)CCc2c(-c3cc4ccc(C(=O)N5CCN(CC6CCN(c7ccc(C8CCC(=O)NC8=O)cn7)CC6)CC5)cc4[nH]3)n[nH]c2C1 (stereo not drawn) [Compound 47, 3-(6-(4-((4-(2-(6,6-dimethyl-4,5,6,7-tetrahydro-1H-indazol-3-yl)-1H-indole-6-carbonyl)piperazin-1-yl)methyl)piperidin-1-yl)pyridin-3-yl)piperidine-2,6-dione] | 
3.9 |  | C[C@@]12Cc3[nH]nc(C(=O)Nc4cnn(CC5CN(C(=O)C6CN(c7ccc(C8CCC(=O)NC8=O)cn7)C6)C5)c4)c3C[C@@H]1C2(F)F (stereo partly drawn) [Compound 49, (4aS,5aR)-N-(1-((1-(1-(5-(2,6-dioxopiperidin-3-yl)pyridin-2-yl)azetidine-3-carbonyl)azetidin-3-yl)methyl)-1H-pyrazol-4-yl)-5,5-difluoro-5a-methyl-1,4,4a,5,5a,6-hexahydrocyclopropa[f]indazole-3-carboxamide] | 
1.6 |  | CN(C(=O)CC1CCN(CC2CCN(c3ccc(C4CCC(=O)NC4=O)cn3)CC2)CC1)c1ccc2cc(-c3n[nH]c4c3C[C@@H]3C(F)(F)[C@]3(C)C4)[nH]c2c1 (stereo partly drawn) [Compound 73, N-(2-((4aS,5aR)-5,5-difluoro-5a-methyl-1,4,4a,5,5a,6-hexahydrocyclopropa[f]indazol-3-yl)-1H-indol-6-yl)-2-(1-((1-(5-(2,6-dioxopiperidin-3-yl)pyridin-2-yl)piperidin-4-yl)methyl)piperidin-4-yl)-N-methylacetamide] | 
